Experimental data reported in PubChem BioAssay AID651570 (Sanford-Burnham Center for Chemical Genomics, 2012).
Active and inactive are the calls of the source.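 The calls were made as follows: active = compounds that block the Wnt3a luciferase reporter with IC50 at or below 20 µM, flagged as nonspecific; inactive = the rest.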

Test system: Wnt-LIGHT cells, Wnt3a-conditioned, luciferase reporter luminescence
Experiment: antagonism of Wnt3a pathway luciferase reporter – Wnt-LIGHT cells, luminescence, selectivity assay for Gli-SUFU antagonist project, dose response (AID 651570)

| SMILES | IC50 |
| --- | --- |
| O=C(Nc1ccccc1)C1=C[C@H](C2CCCCC2)C[C@H](OCCCCO)O1 | > 50 µM (inactive) |
| O=C(C[C@H]1C/C=C\C[C@H](NC(=O)OCC2c3ccccc3-c3ccccc32)C(=O)OC[C@@H]2CCCN2C1=O)N[C@H](CO)Cc1ccccc1 | > 50 µM (inactive) |
